In paper PMC6934184, “Selective DNA-PKcs inhibition extends the therapeutic index of localized radiotherapy and chemotherapy” (The Journal of Clinical Investigation, 2019) one finds inhibition data, which are given here for one compound.

Molecules are shown by their SMILES.

What is called inhibition is the drop in the measured response relative to a control, in per cent.

The target in the assay is T1, NEK4 (Homo sapiens, UniProt P51957).
T1 construct: purchased Thermo Fisher Scientific (Life Technologies) SelectScreen
Kind of assay: SelectScreen Z'LYTE. Type of assay: biochemical. The method, boiled down:
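NU5455 was profiled across the SelectScreen Broad panel of kinase activity and binding assays. Z'LYTE reactions such as CSF1R ran at apparent Km ATP, while the Adapta CAMK1 assay used ATP listed as 10. Values are given as percent.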

T1 sequence (P51957 whole entry): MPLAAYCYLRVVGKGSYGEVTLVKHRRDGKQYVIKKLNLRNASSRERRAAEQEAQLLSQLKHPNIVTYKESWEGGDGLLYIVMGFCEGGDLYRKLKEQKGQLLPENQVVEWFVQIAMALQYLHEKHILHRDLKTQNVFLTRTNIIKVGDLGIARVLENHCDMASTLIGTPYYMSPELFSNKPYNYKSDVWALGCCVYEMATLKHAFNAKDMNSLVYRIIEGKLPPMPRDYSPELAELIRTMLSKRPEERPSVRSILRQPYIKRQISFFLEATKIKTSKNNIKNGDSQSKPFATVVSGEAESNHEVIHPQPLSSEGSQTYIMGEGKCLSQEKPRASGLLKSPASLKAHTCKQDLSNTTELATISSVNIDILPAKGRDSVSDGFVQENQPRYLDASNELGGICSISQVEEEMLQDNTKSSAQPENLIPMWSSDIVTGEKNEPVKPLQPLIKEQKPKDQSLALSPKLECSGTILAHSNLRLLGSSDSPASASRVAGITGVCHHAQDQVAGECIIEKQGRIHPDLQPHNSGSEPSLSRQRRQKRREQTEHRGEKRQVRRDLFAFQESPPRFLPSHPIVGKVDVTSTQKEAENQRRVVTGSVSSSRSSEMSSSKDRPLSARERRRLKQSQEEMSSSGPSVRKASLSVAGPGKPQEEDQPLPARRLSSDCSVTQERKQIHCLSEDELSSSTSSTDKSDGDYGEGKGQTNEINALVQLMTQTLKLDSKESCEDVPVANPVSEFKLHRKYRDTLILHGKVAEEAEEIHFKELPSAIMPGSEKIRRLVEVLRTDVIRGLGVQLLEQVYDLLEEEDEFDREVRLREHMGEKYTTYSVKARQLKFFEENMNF

In the case of `CN(C(=O)CN1CCOCC1)c1ccc2sc3c(-c4cccc5c(=O)cc(N6CC7CCC(C6)O7)oc45)cccc3c2c1` [NU5455], the inhibition at 1 µM is -11.6%.
